Assay results as given in US8859557B2, “Substituted oxindole derivatives and their use as vasopressin receptor ligands” (Abbott GmbH & Co. KG, priority 2006, dated 2014).

Assays:
[1] = target: human vasopressin V1a receptor (Homo sapiens, UniProt P37288); experiment: Vasopressin V1a receptor binding assay; conditions: selectivity for V1b over V1a, quotient of Ki values
[2] = target: T1, human vasopressin V1b receptor (Homo sapiens, UniProt P47901); experiment: Vasopressin V1b receptor binding assay; conditions: displacement of 3H-AVP, membranes of CHO-K1 cells with human V1b receptor
T1 construct: expressed in transfected cells; host or cells: CHO-K1 (cell line hV1b-3H2_CHO), membrane preparation
T1 sequence (P47901 1-424): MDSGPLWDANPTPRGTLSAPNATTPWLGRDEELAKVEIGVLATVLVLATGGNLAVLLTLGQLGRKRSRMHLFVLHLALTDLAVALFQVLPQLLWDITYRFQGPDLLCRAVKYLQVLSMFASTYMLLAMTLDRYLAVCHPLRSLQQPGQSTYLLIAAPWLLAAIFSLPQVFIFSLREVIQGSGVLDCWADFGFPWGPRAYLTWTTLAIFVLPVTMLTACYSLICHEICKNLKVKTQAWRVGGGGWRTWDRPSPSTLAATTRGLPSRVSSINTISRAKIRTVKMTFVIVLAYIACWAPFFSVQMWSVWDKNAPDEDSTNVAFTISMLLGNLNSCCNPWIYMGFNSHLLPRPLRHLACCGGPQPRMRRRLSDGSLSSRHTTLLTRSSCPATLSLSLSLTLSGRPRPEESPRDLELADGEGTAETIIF
Protocol: Methods for Determining the Biological Activity Vasopressin V1b Receptor Binding Assay: Substances:
This series of DMSO predilutions was diluted 1:10 with assay buffer. The substance concentration was again diluted 1:5 in the assay mixture (2% DMSO in the mixture).
All determinations were carried out as triplicate determinations.

[3] = Determination of the microsomal half-life / microsomal clearance (human); assay type: in vitro ADME; conditions: pH 7.4; human liver microsomes, 0.5 μM test substance, 0.25 mg microsomal protein/ml; read-out: Human Mikrosomal Clearance
Protocol: The metabolic stability of a compound can be determined, for example, by incubating a solution of this compound with liver microsomes from particular species (for example rat, dog or human) and determining the half-life of the compound under these conditions (RS Obach, Curr Opin Drug Discov Devel. 2001, 4, 36-44). It is possible to conclude from an observed larger half-life that the metabolic stability of the compound is improved. The stability in the presence of human liver microsomes is of particular interest since it makes it possible to predict the metabolic degradation of the compound in the human liver. Compounds with increased metabolic stability (determined in the liver microsome test) are therefore probably also degraded more slowly in the liver. The slower metabolic degradation in the liver can lead to higher and/or longer-lasting concentrations (effective levels) of the compound in the body, so that the elimination half-life of the compounds according to the invention is increased. Increased and/or longer-lasting effective levels may lead to a better efficacy of the compound in the treatment or prophylaxis of various vasopressin-dependent diseases. An improved metabolic stability may additionally lead to an increased bioavailability after oral administration, because the compound is subjected, after being absorbed in the intestine, to less metabolic degradation in the liver (so-called first pass effect). An increased oral bioavailability may, because the concentration (effective level) of the compound is increased, lead to a better efficacy of the compound after oral administration.
Determination of the Microsomal Half-Life:
The metabolic stability of the compounds of the invention was determined in the following assay.
The test substances are incubated in a concentration of 0.5 μM as follows:
0.5 μM test substance is preincubated together with liver microsomes of various species (rat, human or other species) (0.25 mg of microsomal protein/ml) in 0.05M potassium phosphate buffer pH 7.4 in microtitre plates at 37° C. for 5 min. The reaction is started by adding NADPH (1 mg/ml). 50 μl aliquots are taken after 0, 5, 10, 15, 20 and 30 min, and the reaction is stopped immediately with the same volume of acetonitrile and cooled down. The samples are frozen until analyzed. Using MSMS, the remaining concentration of undegraded test substance is determined. From the […] of the test substance signal/time unit curve, the half-life (T½) is determined, where the half-life of the test substance can be calculated, assuming first order kinetics, from the decrease in the concentration of the compound with time. The microsomal clearance (mCl) is calculated as mCl=In2/T½/(content of microsomal protein in mg/ml)×1000 [ml/min/mg] (modified according to the literature references: Di, The Society for Biomoleculaur Screening, 2003, 453-462; Obach, DMD, 1999 vol 27. N 11, 1350-1359).

[4] = target: T2, recombinant human oxytocin receptors (Homo sapiens, UniProt P30559); experiment: Oxytocin receptor binding assay; conditions: selectivity for V1b over oxytocin receptor, quotient of Ki values
T2 construct: expressed in transfected cells; host or cells: HEK-293, transient expression; lysed and homogenized cells
T2 sequence (P30559 1-389): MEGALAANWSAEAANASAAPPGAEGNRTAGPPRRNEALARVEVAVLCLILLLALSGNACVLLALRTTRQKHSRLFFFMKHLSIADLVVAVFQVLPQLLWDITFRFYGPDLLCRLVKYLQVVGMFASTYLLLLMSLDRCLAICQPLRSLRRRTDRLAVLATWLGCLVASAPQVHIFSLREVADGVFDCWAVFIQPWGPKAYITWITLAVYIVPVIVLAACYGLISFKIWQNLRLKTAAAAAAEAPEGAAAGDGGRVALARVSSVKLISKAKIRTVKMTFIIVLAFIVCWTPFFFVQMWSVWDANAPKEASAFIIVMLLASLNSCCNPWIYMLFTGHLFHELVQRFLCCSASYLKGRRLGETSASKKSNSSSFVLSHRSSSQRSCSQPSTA
Protocol: Oxytocin Receptor Binding Assay
Confluent HEK-293 cells with transiently expressing recombinant human oxytocin receptors were centrifuged at 750×g and at room temperature for 5 minutes. The residue was taken up in ice-cold lysis buffer (50 mM Tris-HCl, 10% glycerol, pH 7.4 and Roche Complete Protease Inhibitor) and subjected to an osmotic shock at 4° C. for 20 minutes. The lyzed cells were then centrifuged at 750×g and at 4° C. for 20 minutes, the residue was taken up in incubation buffer, and aliquots of 10^7 cells/ml were prepared. The aliquots were frozen at −80° C. until used.
On the day of the experiment, the cells were thawed, diluted with incubation buffer and homogenized using a Multipette Combitip (Eppendorf, Hamburg). […] The nonspecific binding was determined with 10^−6 M oxytocin (Bachem AG, H2510). Determinations in triplicate were set up. Bound and free radioligand were separated by filtration under vacuum with Whatman GF/B glass fibre filters using a Skatron cell harvester 7000. The bound radioactivity was determined by liquid scintillation measurement in a Tricarb beta counter, model 2000 or 2200CA (Packard).

human vasopressin V1a receptor, sequence (P37288 whole entry): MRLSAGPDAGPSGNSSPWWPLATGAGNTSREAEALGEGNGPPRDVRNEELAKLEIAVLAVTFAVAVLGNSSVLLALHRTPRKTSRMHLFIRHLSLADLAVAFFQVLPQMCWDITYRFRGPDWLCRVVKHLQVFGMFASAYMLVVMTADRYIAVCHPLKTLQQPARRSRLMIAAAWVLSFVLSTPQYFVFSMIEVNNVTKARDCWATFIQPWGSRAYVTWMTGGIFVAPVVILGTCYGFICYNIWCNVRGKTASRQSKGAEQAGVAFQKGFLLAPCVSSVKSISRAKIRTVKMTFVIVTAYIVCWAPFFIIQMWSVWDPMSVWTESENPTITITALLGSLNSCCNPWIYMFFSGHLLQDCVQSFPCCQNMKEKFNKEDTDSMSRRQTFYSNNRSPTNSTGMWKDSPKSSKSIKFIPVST

Row | SMILES | Ki(h-V1a)/Ki(h-V1b) [1] | Ki [2] [nM] | microsomal CLint at 0.5 μM [3] [µL/min/mg] | Ki(h-OT)/Ki(h-V1b) [4]
1 | CCOc1ncccc1C1(NC(=O)N2CCN(C3CCN(C)CC3)CC2)C(=O)N(S(=O)(=O)c2ccccc2)c2ccc(C#N)cc21 (racemic) [Example 4, N-[5-Cyano-3-(2-ethoxypyridin-3-yl)-2-oxo-1-(phenylsulphonyl)-2,3-dihydro-1H-indol-3-yl]-4-(1-methylpiperidin-4-yl)piperazine-1-carboxamide] | ++ (>50-100) | 10 to 50 | < 60 | ++ (>25-50)
2 | CCOc1ncccc1C1(NC(=O)N2CCN(C3CCNCC3)CC2)C(=O)N(S(=O)(=O)c2ccc(OC)cc2OC)c2ccc(C#N)cc21.O=C(O)C(F)(F)F.O=C(O)C(F)(F)F (racemic) [Example 25, N-[5-Cyano-1-[(2,4-dimethoxyphenyl)sulphonyl]-3-(2-ethoxypyridin-3-yl)-2-oxo-2,3-dihydro-1H-indol-3-yl]-4-piperidin-4-ylpiperazine-1-carboxamide bis(trifluoroacetate)] | +++ (>100) | < 10 | < 60 | ++ (>25-50)
3 | CCOc1ncccc1C1(NC(=O)N2CCC(N3CCN(C)CC3)CC2)C(=O)N(S(=O)(=O)c2ccc(OC)cc2)c2ccc(C#N)cc21.O=C(O)C(F)(F)F (racemic) [Example 35, N-[5-Cyano-3-(2-ethoxypyridin-3-yl)-1-[(4-methoxyphenyl)sulphonyl]-2-oxo-2,3-dihydro-1H-indol-3-yl]-4-(4-methylpiperazin-1-yl)piperidine-1-carboxamide trifluoroacetate] | + (15-50) | < 10 | 60 to 120 | ++ (>25-50)
4 | CCOc1ncccc1C1(NC(=O)N2CCC(N3CCNCC3)CC2)C(=O)N(S(=O)(=O)c2ccc(OC)cc2OC)c2ccc(C#N)cc21 (racemic) [Example 55, N-[5-Cyano-1-[(2,4-dimethoxyphenyl)sulphonyl]-3-(2-ethoxypyridin-3-yl)-2-oxo-2,3-dihydro-1H-indol-3-yl]-4-piperazin-1-ylpiperidine-1-carboxamide] | +++ (>100) | < 10 | 60 to 120 | ++ (>25-50)
5 | CCOc1ncccc1C1(NC(=O)N2CCC(C3CCNCC3)CC2)C(=O)N(S(=O)(=O)c2ccc(OC)cc2OC)c2ccc(C#N)cc21.O=C(O)C(F)(F)F.O=C(O)C(F)(F)F (racemic) [Example 85, N-[5-Cyano-1-[(2,4-dimethoxyphenyl)sulphonyl]-3-(2-ethoxypyridin-3-yl)-2-oxo-2,3-dihydro-1H-indol-3-yl]-4,4′-bipiperidine-1-carboxamide bis(trifluoroacetate)] | +++ (>100) | < 10 | 60 to 120 | ++ (>25-50)

Next, values leading:

Row | Ki(h-V1a)/Ki(h-V1b) [1] | Ki [2] [nM] | microsomal CLint at 0.5 μM [3] [µL/min/mg] | Ki(h-OT)/Ki(h-V1b) [4] | SMILES
6 | +++ (>100) | < 10 | < 60 | +++ (>50) | CCOc1ncccc1C1(NC(=O)N2CCN(C3CCN(C)CC3)CC2)C(=O)N(S(=O)(=O)c2ccc(OC)cc2OC)c2ccc(C#N)cc21 (racemic) [Example 1, N-[5-Cyano-1-[(2,4-dimethoxyphenyl)sulphonyl]-3-(2-ethoxypyridin-3-yl)-2-oxo-2,3-dihydro-1H-indol-3-yl]-4-(1-methylpiperidin-4-yl)piperazine-1-carboxamide]
7 | +++ (>100) | < 10 | 60 to 120 | +++ (>50) | CCOc1ncccc1C1(NC(=O)N2CCC(N3CCN(C)CC3)CC2)C(=O)N(S(=O)(=O)c2ccc(OC)cc2OC)c2ccc(C#N)cc21 (racemic) [Example 31, N-[5-Cyano-1-[(2,4-dimethoxyphenyl)sulphonyl]-3-(2-ethoxypyridin-3-yl)-2-oxo-2,3-dihydro-1H-indol-3-yl]-4-(4-methylpiperazin-1-yl)piperidine-1-carboxamide]
8 | +++ (>100) | < 10 | 60 to 120 | +++ (>50) | CCOc1ncccc1C1(NC(=O)N2CCC(N3CCN(CC)CC3)CC2)C(=O)N(S(=O)(=O)c2ccc(OC)cc2OC)c2ccc(C#N)cc21 (racemic) [Example 37, N-[5-Cyano-1-[(2,4-dimethoxyphenyl)sulphonyl]-3-(2-ethoxypyridin-3-yl)-2-oxo-2,3-dihydro-1H-indol-3-yl]-4-(4-ethylpiperazin-1-yl)piperidine-1-carboxamide]
9 | ++ (>50-100) | < 10 | 60 to 120 | +++ (>50) | CCOc1ncccc1C1(NC(=O)N2CCC(N3CCN(CC)CC3)CC2)C(=O)N(S(=O)(=O)c2ccccc2)c2ccc(C#N)cc21 (racemic) [Example 40, N-[5-Cyano-3-(2-ethoxypyridin-3-yl)-2-oxo-1-(phenylsulphonyl)-2,3-dihydro-1H-indol-3-yl]-4-(4-ethylpiperazin-1-yl)piperidine-1-carboxamide]
10 | +++ (>100) | < 10 | < 60 | +++ (>50) | CCOc1ncccc1C1(NC(=O)N2CCN(C3CCN(CC)CC3)CC2)C(=O)N(S(=O)(=O)c2ccc(OC)cc2OC)c2ccc(C#N)cc21.O=C(O)C(F)(F)F (single isomer, unassigned) [Example 7B, (−)-N-[5-Cyano-1-[(2,4-dimethoxyphenyl)sulphonyl]-3-(2-ethoxypyridin-3-yl)-2-oxo-2,3-dihydro-1H-indol-3-yl]-4-(1-ethylpiperidin-4-yl)piperazine-1-carboxamide trifluoroacetate]
